Test results: patent US9108944B2, “Androgen receptor modulators and uses thereof” (ARAGON PHARMACEUTICALS, INC., priority 2010, dated 2015)

What follows are compounds tested against T1, AR-VP16 (Homo sapiens, UniProt P10275) (assay: AR-VP16 DNA Binding Assay, antagonist mode (HepG2 cells, 0.1 nM R1881)).
T1 sequence (P10275 560-920 limits assumed): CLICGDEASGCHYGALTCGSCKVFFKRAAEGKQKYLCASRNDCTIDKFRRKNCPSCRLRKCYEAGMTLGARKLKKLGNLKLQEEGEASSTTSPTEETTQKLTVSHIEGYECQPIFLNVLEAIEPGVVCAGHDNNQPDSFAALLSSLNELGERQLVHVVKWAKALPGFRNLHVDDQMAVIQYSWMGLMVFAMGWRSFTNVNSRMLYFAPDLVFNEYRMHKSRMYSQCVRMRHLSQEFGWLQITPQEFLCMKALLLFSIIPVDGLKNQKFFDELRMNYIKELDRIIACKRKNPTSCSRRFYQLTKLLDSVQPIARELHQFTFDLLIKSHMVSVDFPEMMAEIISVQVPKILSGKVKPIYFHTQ
Assay type: cell-based
Procedure: Cells were transiently transfected using Lipofectin (Life Technologies) according to the manufacturer's protocol. […] Transfected cells were incubated overnight then treated with ligand. […] For antagonist assays, the compounds were serially diluted and 50 μL of compound with RPMI supplemented with charcoal stripped serum plus methyltrienolone (R1881) were added to the cells. The final R1881 concentration used in the antagonist assays was 0.1 nM. Following 48 hour incubation the medium was removed and the cells were lysed in 40 μL of lysis buffer (25 mM Tris Phosphate, 2 mM CDTA, 10% Glycerol, 0.5% Triton X-100, 2 mM DTT).

`Cc1cc(N2C(=O)C3(CCC3)N(c3ccc(C(=O)Nc4ccnn4C)c(F)c3)C2=S)cnc1C#N` [Compound 302, 4-(7-(6-Cyano-5-methylpyridin-3-yl)-8-oxo-6-thioxo-5,7-diazaspiro[3.4]octan-5-yl)-2-fluoro-N-(1-methyl-1H-pyrazol-5-yl)benzamide] and `Cc1ccc(NC(=O)c2ccc(N3C(=S)N(c4cnc(C#N)c(C)c4)C(=O)C34CCC4)cc2F)cn1` [Compound 304, 4-(7-(6-Cyano-5-methylpyridin-3-yl)-8-oxo-6-thioxo-5,7-diazaspiro[3.4]octan-5-yl)-2-fluoro-N-(6-methylpyridin-3-yl)benzamide] cannot be ordered by IC50: < 1 µM for the first, < 1 µM for the second.

`Cc1cncc(-c2ccc(N3C(=S)N(c4cnc(C#N)c(C)c4)C(=O)C34CCC4)cc2)c1` [Compound 98, 3-Methyl-5-(5-(4-(5-methylpyridin-3-yl)phenyl)-8-oxo-6-thioxo-5,7-diazaspiro[3.4]octan-7-yl)picolinonitrile] and `Cc1cc(N2C(=O)C3(CCC3)N(c3ccc(C4CCOCC4)cc3)C2=S)cnc1C#N` [Compound 112, 3-Methyl-5-(8-oxo-5-(4-(tetrahydro-2H-pyran-4-yl)phenyl)-6-thioxo-5,7-diazaspiro[3.4]octan-7-yl)picolinonitrile] cannot be ordered by IC50: < 1 µM for the first, < 1 µM for the second.

`N#Cc1ncc(N2C(=O)C3(CCC3)N(c3ccccc3)C2=S)cc1C(F)(F)F` [Compound 48, 5-(8-Oxo-5-phenyl-6-thioxo-5,7-diazaspiro[3.4]octan-7-yl)-3-(trifluoromethyl)picolinonitrile] and `N#Cc1ncc(N2C(=O)C3(CCC3)N(c3ccc4ccccc4c3)C2=S)cc1C(F)(F)F` [Compound 9, 5-(5-(Naphthalen-2-yl)-8-oxo-6-thioxo-5,7-diazaspiro[3.4]octan-7-yl)-3-(trifluoromethyl)picolinonitrile] cannot be ordered by IC50: < 1 µM for the first, < 1 µM for the second.

`CN1CCN(CCOc2ccc(N3C(=S)N(c4cnc(C#N)c(C(F)(F)F)c4)C(=O)C34CCC4)c(F)c2)CC1` [Compound 182, 5-(5-(2-Fluoro-4-(2-(4-methylpiperazin-1-yl)ethoxy)phenyl)-8-oxo-6-thioxo-5,7-diazaspiro[3.4]octan-7-yl)-3-(trifluoromethyl)picolinonitrile] and `CC(=O)N1CCN(CCOc2ccc(N3C(=S)N(c4cnc(C#N)c(C(F)(F)F)c4)C(=O)C34CCC4)cc2F)CC1` [Compound 202, 5-(5-(4-(2-(4-Acetylpiperazin-1-yl)ethoxy)-3-fluorophenyl)-8-oxo-6-thioxo-5,7-diazaspiro[3.4]octan-7-yl)-3-(trifluoromethyl)picolinonitrile] cannot be ordered by IC50: < 1 µM for the first, < 1 µM for the second.

`N#Cc1ncc(N2C(=O)C3(CCC3)N(c3ccc(OCCN4CCCC4)c(F)c3)C2=S)cc1C(F)(F)F` [Compound 127, 5-(5-(3-Fluoro-4-(2-(pyrrolidin-1-yl)ethoxy)phenyl)-8-oxo-6-thioxo-5,7-diazaspiro[3.4]octan-7-yl)-3-(trifluoromethyl)picolinonitrile] and `N#Cc1ncc(N2C(=O)C3(CCC3)N(c3ccc(OCCN4CCCCC4)c(F)c3)C2=S)cc1C(F)(F)F` [Compound 177, 5-(5-(3-Fluoro-4-(2-(piperidin-1-yl)ethoxy)phenyl)-8-oxo-6-thioxo-5,7-diazaspiro[3.4]octan-7-yl)-3-(trifluoromethyl)picolinonitrile] cannot be ordered by IC50: < 1 µM for the first, < 1 µM for the second.

`CN(Cc1ccncc1)Cc1ccc(N2C(=S)N(c3cnc(C#N)c(C(F)(F)F)c3)C(=O)C23CCC3)cc1` [Compound 92, 5-(5-(4-((Methyl(pyridin-4-ylmethyl)amino)methyl)phenyl)-8-oxo-6-thioxo-5,7-diazaspiro[3.4]octan-7-yl)-3-(trifluoromethyl)picolinonitrile] and `CNC(=O)CCCc1ccc(N2C(=S)N(c3cnc(C#N)c(C(F)(F)F)c3)C(=O)C23CCC3)cc1` [Compound 230, 4-(4-(7-(6-Cyano-5-(trifluoromethyl)pyridin-3-yl)-8-oxo-6-thioxo-5,7-diazaspiro[3.4]octan-5-yl)phenyl)-N-methylbutanamide] cannot be ordered by IC50: < 1 µM for the first, < 1 µM for the second.

`N#Cc1ncc(N2C(=O)C3(CCC3)N(c3ccc(OCCCc4cccnc4)c(F)c3)C2=S)cc1C(F)(F)F` [Compound 145, 5-(5-(3-Fluoro-4-(3-(pyridin-3-yl)propoxy)phenyl)-8-oxo-6-thioxo-5,7-diazaspiro[3.4]octan-7-yl)-3-(trifluoromethyl)picolinonitrile] and `N#Cc1ncc(N2C(=O)C3(CCC3)N(c3ccc(OCCc4cnccn4)c(F)c3)C2=S)cc1C(F)(F)F` [Compound 176, 5-(5-(3-Fluoro-4-(2-(pyrazin-2-yl)ethoxy)phenyl)-8-oxo-6-thioxo-5,7-diazaspiro[3.4]octan-7-yl)-3-(trifluoromethyl)picolinonitrile] cannot be ordered by IC50: < 1 µM for the first, < 1 µM for the second.

`CNC(=O)c1ccc(N2C(=S)N(c3ccc(C#N)c4ccccc34)C(=O)C23CCC3)cc1F` [Compound 95, 4-(7-(4-Cyanonaphthalen-1-yl)-8-oxo-6-thioxo-5,7-diazaspiro[3.4]octan-5-yl)-2-fluoro-N-methylbenzamide] and `Cc1ccc(N2C(=S)N(c3ccc(C#N)c4ccccc34)C(=O)C23CCC3)cc1` [Compound 94, 4-(8-Oxo-6-thioxo-5-(p-tolyl)-5,7-diazaspiro[3.4]octan-7-yl)-1-naphthonitrile] cannot be ordered by IC50: < 1 µM for the first, < 1 µM for the second.

`CN1CCN(CCOc2ccc(N3C(=S)N(c4ccc(C#N)c5ncccc45)C(=O)C34CCC4)cc2F)CC1` [Compound 173, 5-(5-(3-Fluoro-4-(2-(4-methylpiperazin-1-yl)ethoxy)phenyl)-8-oxo-6-thioxo-5,7-diazaspiro[3.4]octan-7-yl)quinoline-8-carbonitrile] and `CN1CCN(C(=O)COc2ccc(N3C(=S)N(c4cnc(C#N)c(C(F)(F)F)c4)C(=O)C34CCC4)cc2F)CC1` [Compound 309, 5-(5-(3-Fluoro-4-(2-(4-methylpiperazin-1-yl)-2-oxoethoxy)phenyl)-8-oxo-6-thioxo-5,7-diazaspiro[3.4]octan-7-yl)-3-(trifluoromethyl)picolinonitrile] cannot be ordered by IC50: < 1 µM for the first, < 1 µM for the second.

`N#Cc1ncc(N2C(=O)C3(CCC3)N(c3ccc4[nH]ncc4c3)C2=S)cc1C(F)(F)F` [Compound 87, 5-(5-(1H-Indazol-5-yl)-8-oxo-6-thioxo-5,7-diazaspiro[3.4]octan-7-yl)-3-(trifluoromethyl)picolinonitrile] and `N#Cc1ncc(N2C(=O)C3(CCC3)N(c3ccc(Br)c(F)c3)C2=S)cc1C(F)(F)F` [Compound 4, 5-(5-(4-Bromo-3-fluorophenyl)-8-oxo-6-thioxo-5,7-diazaspiro[3.4]octan-7-yl)-3-(trifluoromethyl)picolinonitrile] cannot be ordered by IC50: < 1 µM for the first, < 1 µM for the second.

`N#Cc1ncc(N2C(=O)C3(CCC3)N(c3ccc(OC4CCN(CCO)CC4)cc3)C2=S)cc1C(F)(F)F` [Compound 218, 5-(5-(4-((1-(2-hydroxyethyl)piperidin-4-yl)oxy)phenyl)-8-oxo-6-thioxo-5,7-diazaspiro[3.4]octan-7-yl)-3-(trifluoromethyl)picolinonitrile] and `N#Cc1ncc(N2C(=O)C3(CCC3)N(c3ccc(C(=O)NC4CC4)c(F)c3)C2=S)cc1C(F)(F)F` [Compound 284, 4-(7-(6-Cyano-5-(trifluoromethyl)pyridin-3-yl)-8-oxo-6-thioxo-5,7-diazaspiro[3.4]octan-5-yl)-N-cyclopropyl-2-fluorobenzamide] cannot be ordered by IC50: < 1 µM for the first, < 1 µM for the second.

Going from `COCCNC(=O)c1ccc(N2C(=S)N(c3cnc(C#N)c(C(F)(F)F)c3)C(=O)C23CCC3)cc1F` [Compound 248, 4-(7-(6-Cyano-5-(trifluoromethyl)pyridin-3-yl)-8-oxo-6-thioxo-5,7-diazaspiro[3.4]octan-5-yl)-2-fluoro-N-(2-methoxyethyl)benzamide] to `N#Cc1ncc(N2C(=O)C3(CCC3)N(c3ccc(C(=O)NC4CCCC4)c(F)c3)C2=S)cc1C(F)(F)F` [Compound 267, 4-(7-(6-Cyano-5-(trifluoromethyl)pyridin-3-yl)-8-oxo-6-thioxo-5,7-diazaspiro[3.4]octan-5-yl)-N-cyclopentyl-2-fluorobenzamide], the IC50 falls from > 1 µM to < 1 µM.

`CNC(=O)c1ccc(N2C(=S)N(c3cnc(C#N)c(Cl)c3)C(=O)C23CCC3)cc1F` [Compound 58, 4-(7-(5-Chloro-6-cyanopyridin-3-yl)-8-oxo-6-thioxo-5,7-diazaspiro[3.4]octan-5-yl)-2-fluoro-N-methylbenzamide] and `N#Cc1ncc(N2C(=O)C3(CCC3)N(c3ccc(C(=O)NCCCc4ccccc4)c(F)c3)C2=S)cc1C(F)(F)F` [Compound 258, 4-(7-(6-Cyano-5-(trifluoromethyl)pyridin-3-yl)-8-oxo-6-thioxo-5,7-diazaspiro[3.4]octan-5-yl)-2-fluoro-N-(3-phenylpropyl)benzamide] cannot be ordered by IC50: < 1 µM for the first, < 1 µM for the second.

`N#Cc1ncc(N2C(=O)C3(CCC3)N(c3ccc(OCCc4ccccn4)cc3F)C2=S)cc1C(F)(F)F` [Compound 183, 5-(5-(2-Fluoro-4-(2-(pyridin-2-yl)ethoxy)phenyl)-8-oxo-6-thioxo-5,7-diazaspiro[3.4]octan-7-yl)-3-(trifluoromethyl)picolinonitrile] and `N#Cc1ncc(N2C(=O)C3(CCC3)N(c3ccc(O)cc3F)C2=S)cc1C(F)(F)F` [Compound 64, 5-(5-(2-Fluoro-4-hydroxyphenyl)-8-oxo-6-thioxo-5,7-diazaspiro[3.4]octan-7-yl)-3-(trifluoromethyl)picolinonitrile] cannot be ordered by IC50: < 1 µM for the first, < 1 µM for the second.
